Target: human APJ receptor (Homo sapiens (Human), UniProt P35414)
Assay: biochemical
Assay type: biochemical
Conditions: [35S]GTPγS binding, CHO membranes expressing human APJ receptor; read-out: Activity hAPJ SPA EC50 IP
Procedure, shortened: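 Membranes of a stable CHO line carrying human APJ (pFLAG-CMV-3) were used in a GTPγS binding format; buffer GDP, MgCl2 and NaCl were optimized, and plates were read after 90 min at RT.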

Chain of human APJ receptor (P35414 whole entry): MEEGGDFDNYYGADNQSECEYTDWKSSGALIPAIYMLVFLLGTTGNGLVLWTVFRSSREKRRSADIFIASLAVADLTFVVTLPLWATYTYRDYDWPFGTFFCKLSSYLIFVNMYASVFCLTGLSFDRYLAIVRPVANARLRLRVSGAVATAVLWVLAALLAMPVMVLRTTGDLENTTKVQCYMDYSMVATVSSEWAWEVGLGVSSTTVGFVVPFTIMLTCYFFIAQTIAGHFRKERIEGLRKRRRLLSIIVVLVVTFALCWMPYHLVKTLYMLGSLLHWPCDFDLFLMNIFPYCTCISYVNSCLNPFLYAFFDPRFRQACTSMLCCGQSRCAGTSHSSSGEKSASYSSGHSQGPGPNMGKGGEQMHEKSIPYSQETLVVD

| Molecule | EC50 |
| --- | --- |
| COc1ncnc(OC)c1-n1c(NS(=O)(=O)[C@@H](C)[C@H](C)c2ncc(Cl)cn2)nnc1-c1nn(C)c2ccc(C)cc12 [Example 433.0, (2S,3R)-3-(5-chloropyrimidin-2-yl)-N-(4-(4,6-dimethoxypyrimidin-5-yl)-5-(1,5-dimethyl-1H-indazol-3-yl)-4H-1,2,4-triazol-3-yl)butane-2-sulfonamide] | 0.84 nM |
| COc1cccc(OC)c1-n1c(NS(=O)(=O)[C@@H](C)[C@H](OC)c2ncc(Cl)cn2)nnc1-c1c(C)nc2ccccn12 [Example 428.0, (1R,25)-1-(5-chloropyrimidin-2-yl)-N-(4-(2,6-dimethoxyphenyl)-5-(2-methylimidazo[1,2-a]pyridin-3-yl)-4H-1,2,4-triazol-3-yl)-1-methoxypropane-2-sulfonamide] | 120 nM |
| COc1cccc(OC)c1-n1c(NS(=O)(=O)[C@@H](C)[C@H](C)c2ncc(Cl)cn2)nnc1-c1ccn(C(F)F)n1 [Example 222.0, (2S,3R)-3-(5-chloro-2-pyrimidinyl)-N-(5-(1-(difluoromethyl)-1H-pyrazol-3-yl)-4-(2,6-dimethoxyphenyl)-4H-1,2,4-triazol-3-yl)-2-butanesulfonamide] | 0.11 nM |
| COc1cccc(OC)c1-n1c(NS(=O)(=O)[C@@H](C)[C@H](C)c2ncc(Cl)cn2)nnc1-c1cnn2c1CCC2 [Example 445.0, (2S,3R)-3-(5-chloropyrimidin-2-yl)-N-(5-(5,6-dihydro-4H-pyrrolo[1,2-b]pyrazol-3-yl)-4-(2,6-dimethoxyphenyl)-4H-1,2,4-triazol-3-yl)butane-2-sulfonamide] | 0.089 nM |
| COc1cccc(OC)c1-n1c(NS(=O)(=O)[C@H](C)Cc2ncc(F)cn2)nnc1-c1nc(C)cs1 [Example 100.0] | 3 nM |
| COc1cccc(OC)c1-n1c(NS(=O)(=O)[C@H](C)Cc2ncc(F)cn2)nnc1-c1nc(C2CC2)cs1 (single isomer, unassigned) [Example 159.0, (R)-N-(5-(4-cyclopropylthiazol-2-yl)-4-(2,6-dimethoxyphenyl)-4H-1,2,4-triazol-3-yl)-1-(5-fluoropyrimidin-2-yl)propane-2-sulfonamide or (S)-N-(5-(4-cyclopropylthiazol-2-yl)-4-(2,6-dimethoxyphenyl)-4H-1,2,4-triazol-3-yl)-1-(5-fluoropyrimidin-2-yl)propane-2-sulfonamide] | 0.61 nM |
| CCO[C@H](c1ncc(Cl)cn1)[C@H](C)S(=O)(=O)Nc1nnc(-c2ccn(CC)n2)n1-c1c(OC)cccc1OC [Example 394.0, (1R,2S)-1-(5-chloropyrimidin-2-yl)-N-(4-(2,6-dimethoxyphenyl)-5-(1-ethyl-1H-pyrazol-3-yl)-4H-1,2,4-triazol-3-yl)-1-ethoxypropane-2-sulfonamide] | 0.54 nM |
| CO[C@H](c1ncc(Cl)cn1)[C@H](C)S(=O)(=O)Nc1nnc(-c2n[nH]c3c2CCC3)n1C1(C)CCC1 [Example 492.0, (1R,2S)-1-(5-chloropyrimidin-2-yl)-1-methoxy-N-(4-(1-methylcyclobutyl)-5-(1,4,5,6-tetrahydrocyclopenta[c]pyrazol-3-yl)-4H-1,2,4-triazol-3-yl)propane-2-sulfonamide] | 34 nM |
| COc1cccc(OC)c1-n1c(NS(=O)(=O)C[C@H](OC)c2ccc(Cl)cc2S(C)(=O)=O)nnc1-c1ccn(C)n1 (single isomer, unassigned) [Example 381.0, (R)-2-(4-Chloro-2-(methylsulfonyl)phenyl)-N-(4-(2,6-dimethoxyphenyl)-5-(1-methyl-1H-pyrazol-3-yl)-4H-1,2,4-triazol-3-yl)-2-methoxyethanesulfonamide or (S)-2-(4-chloro-2-(methylsulfonyl)phenyl)-N-(4-(2,6-dimethoxyphenyl)-5-(1-methyl-1H-pyrazol-3-yl)-4H-1,2,4-triazol-3-yl)-2-methoxyethanesulfonamide] | 0.29 nM |
| CCOC(=O)c1ccc(OC)c(-n2c(NS(=O)(=O)CCc3ccc(Cl)cc3)nnc2-c2cccs2)c1 [Example 28.0, Ethyl 3-(3-(2-(4-chlorophenyl)ethylsulfonamido)-5-(thiophen-2-yl)-4H-1,2,4-triazol-4-yl)-4-methoxybenzoate] | 6 nM |
| COc1cccc(OC)c1-n1c(NS(=O)(=O)[C@@H](C)[C@@H](OC(C)C)c2ncc(C)cn2)nnc1-c1noc(C)c1C [Example 517.0, (1S,2S)-N-(4-(2,6-dimethoxyphenyl)-5-(4,5-dimethylisoxazol-3-yl)-4H-1,2,4-triazol-3-yl)-1-isopropoxy-1-(5-methylpyrimidin-2-yl)propane-2-sulfonamide] | 3 nM |
| COCC[C@@H]([C@H](C)c1ncc(F)cn1)S(=O)(=O)Nc1nnc(-c2nc(C)cs2)n1-c1c(OC)cccc1OC (single isomer, unassigned) [Example 19.0] | 6.3 nM |
| COc1cccc(OC)c1-n1c(NS(=O)(=O)[C@H](C)[C@@H](C)c2ncc(F)cn2)nnc1-c1nc(C)cs1 (single isomer, unassigned) [Example 121.0] | 12 nM |
| COc1ccc(C(=O)O)cc1-n1c(NS(=O)(=O)Cc2ccc(Cl)cc2)nnc1-c1cccs1 [Example 384.0, 3-(3-((4-Chlorophenyl)methylsulfonamido)-5-(thiophen-2-yl)-4H-1,2,4-triazol-4-yl)-4-methoxybenzoic acid] | > 12500 nM |
| COc1ccc(NCCO)cc1-n1c(NS(=O)(=O)CCc2ccc(Cl)cc2)nnc1-c1cccs1 [Example 251.0, 2-(4-chlorophenyl)-N-(4-(5-((2-hydroxyethyl)amino)-2-methoxyphenyl)-5-(2-thiophenyl)-4H-1,2,4-triazol-3-yl)ethanesulfonamide] | 460 nM |
| COc1cccc(OC)c1-n1c(NS(=O)(=O)[C@H](C)Cc2ncc(F)cn2)nnc1-c1cnccn1 (single isomer, unassigned) [Example 29.0, (R)-N-(4-(2,6-dimethoxyphenyl)-5-(pyrazin-2-yl)-4H-1,2,4-triazol-3-yl)-1-(5-fluoropyrimidin-2-yl)propane-2-sulfonamide or (S)-N-(4-(2,6-dimethoxyphenyl)-5-(pyrazin-2-yl)-4H-1,2,4-triazol-3-yl)-1-(5-fluoropyrimidin-2-yl)propane-2-sulfonamide] | 47 nM |
| COc1cccc(OC)c1-n1c(NS(=O)(=O)CCc2ccc(F)cc2C#N)nnc1-c1nc(C(C)C)cs1 [Example 151.0, 2-(2-cyano-4-fluorophenyl)-N-(4-(2,6-dimethoxyphenyl)-5-(4-isopropylthiazol-2-yl)-4H-1,2,4-triazol-3-yl)ethanesulfonamide] | 31 nM |
| COc1cccc(OC)c1-n1c(NS(=O)(=O)[C@H](C)[C@@H](OC)c2ncc(F)cn2)nnc1-c1ccn(C)n1 (single isomer, unassigned) [Example 118.0, (1S,2R)-N-(4-(2,6-dimethoxyphenyl)-5-(1-methyl-1H-pyrazol-3-yl)-4H-1,2,4-triazol-3-yl)-1-(5-fluoropyrimidin-2-yl)-1-methoxypropane-2-sulfonamide or (1R,2S)-N-(4-(2,6-dimethoxyphenyl)-5-(1-methyl-1H-pyrazol-3-yl)-4H-1,2,4-triazol-3-yl)-1-(5-fluoropyrimidin-2-yl)-1-methoxypropane-2-sulfonamide] | 100 nM |
| (1R,2S)-N-(4-(2,6-dimethoxyphenyl)-5-(1-methyl-1H-pyrazol-3-yl)-4H-1,2,4-triazol-3-yl)-1-(5-fluoro-2-pyridinyl)-1-hydroxy-2-propanesulfonamide and (1S,2R)-N-(4-(2,6-dimethoxyphenyl)-5-(1-methyl-1H-pyrazol-3-yl)-4H-1,2,4-triazol-3-yl)-1-(5-fluoro-2-pyridinyl)-1-hydroxy-2-propanesulfonamide [Example 24.0] | 0.18 nM |
| COc1cccc(OC)c1-n1c(NS(=O)(=O)[C@@H](C)[C@H](OC)c2ncc(Cl)cn2)nnc1-c1c[nH]cn1 [Example 523.0, (1R,2S)-1-(5-chloropyrimidin-2-yl)-N-(4-(2,6-dimethoxyphenyl)-5-(1H-imidazol-4-yl)-4H-1,2,4-triazol-3-yl)-1-methoxypropane-2-sulfonamide] | 3.2 nM |
| COC[C@@H](C)n1c(NS(=O)(=O)[C@@H](C)[C@H](OC)c2ncc(Cl)cn2)nnc1-c1ccn(C)n1 [Example 531.0, (1R,2S)-1-(5-chloro-2-pyrimidinyl)-1-methoxy-N-(4-((2R)-1-methoxy-2-propanyl)-5-(1-methyl-1H-pyrazol-3-yl)-4H-1,2,4-triazol-3-yl)-2-propanesulfonamide] | 50 nM |
| COc1cccc(OC)c1-n1c(NS(=O)(=O)C[C@H](O)c2ccc(Cl)cc2)nnc1-c1ccn(C)n1 (single isomer, unassigned) [Example 374.0, (R)-2-(4-Chlorophenyl)-N-(4-(2,6-dimethoxyphenyl)-5-(1-methyl-1H-pyrazol-3-yl)-4H-1,2,4-triazol-3-yl)-2-hydroxyethanesulfonamide or (R)-2-(4-chlorophenyl)-N-(4-(2,6-dimethoxyphenyl)-5-(1-methyl-1H-pyrazol-3-yl)-4H-1,2,4-triazol-3-yl)-2-hydroxyethanesulfonamide] | 7 nM |
| COc1cccc(OC)c1-n1c(NS(=O)(=O)[C@@H](C)Cc2ncc(F)cn2)nnc1-c1cccnn1 (single isomer, unassigned) [Example 32.0, (2S)-N-(4-(2,6-dimethoxyphenyl)-5-(3-pyridazinyl)-4H-1,2,4-triazol-3-yl)-1-(5-fluoro-2-pyrimidinyl)-2-propanesulfonamide or (2R)-N-(4-(2,6-dimethoxyphenyl)-5-(3-pyridazinyl)-4H-1,2,4-triazol-3-yl)-1-(5-fluoro-2-pyrimidinyl)-2-propanesulfonamide] | 17 nM |
| COc1cccc(OC)c1-n1c(NS(=O)(=O)[C@@H](C)[C@H](C)c2ncc(C#N)cn2)nnc1-c1cc2n(n1)CCC2 [Example 225.0] | 2 nM |
